Assay results reported in the NIST ThermoML archive (doi:10.1016/j.jct.2013.09.043).

Test: xn = mol fraction of the nth substance listed
Settings: 101 kPa, Liquid; for viscosity: Capillary tube (Ostwald / Ubbelohde) method; for mass density: Vibrating tube method

CCCC(C)O (stereo not drawn) [pentan-2-ol] + NC=O
Settings | mass density, 298.15 K [kg/m3] | mass density, 303.15 K [kg/m3] | mass density, 308.15 K [kg/m3] | mass density, 313.15 K [kg/m3] | viscosity, 298.15 K [mPa·s] | viscosity, 303.15 K [mPa·s] | viscosity, 308.15 K [mPa·s] | viscosity, 313.15 K [mPa·s]
x2 = 0 | 805.05 | 800.88 | 796.89 | 792.62 | 3.423 | 2.834 | 2.348 | 1.979
x2 = 0.0823 | 814.65 | 810.45 | 806.51 | 802.09 | 3.386 | 2.811 | 2.328 | 1.959
x2 = 0.1639 | 825.39 | 821.13 | 817.19 | 812.73 | 3.363 | 2.801 | 2.329 | 1.973
x2 = 0.2393 | 836.58 | 832.27 | 828.29 | 823.79 | 3.353 | 2.811 | 2.348 | 2.004
x2 = 0.3541 | 856.48 | 852.09 | 848.01 | 843.52 | 3.379 | 2.864 | 2.409 | 2.075
x2 = 0.4444 | 875.19 | 870.77 | 866.59 | 862.13 | 3.402 | 2.911 | 2.468 | 2.144
x2 = 0.5612 | 904.57 | 900.13 | 895.87 | 891.4 | 3.422 | 2.964 | 2.544 | 2.237
x2 = 0.6497 | 932.05 | 927.6 | 923.33 | 918.86 | 3.431 | 2.989 | 2.587 | 2.298
x2 = 0.7431 | 967.72 | 963.24 | 959 | 954.54 | 3.42 | 3.003 | 2.615 | 2.343
x2 = 0.8502 | 1020.4 | 1016.03 | 1011.79 | 1007.32 | 3.384 | 3.001 | 2.628 | 2.38
x2 = 0.9398 | 1079.03 | 1074.66 | 1070.45 | 1066.08 | 3.341 | 2.988 | 2.635 | 2.403
